# Measured values: ChEMBL document CHEMBL3727350, “Agents and methods for treating ischemic and other diseases” (2014)
# The source made the active and inactive calls. The rule behind the calls is not given here.
# How the values were obtained:
# [1] = target: Transient receptor potential cation channel subfamily M member 7 (Rattus norvegicus) (UniProt Q925B3); experiment: Inhibition of TRPM7 in rat H9c2 cells assessed as protection against oxygen glucose deprivation-induced cell death at 0.05 to 5 uM applied during OGD; assay type: cell-based
# [2] = Inhibition of cell proliferation of mouse NIH/3T3 cells at 1.25 to 10 uM incubated for 72 hrs by propidium iodide staining assay; assay type: cell-based; details: nih3t3, 72 h
# [3] = target: Transient receptor potential cation channel subfamily M member 7 (Rattus norvegicus) (UniProt Q925B3); experiment: Inhibition of TRPM7 in Sprague-Dawley rat retinal explants subjected to 1 hr oxygen-glucose deprivation assessed as reduction in retinal ischemia at 5 uM
# [4] = species on record: Mus musculus; experiment: Inhibition of sodium channel in mouse cortical neurons assessed as effect on Na+ currents
# [5] = target: Transient receptor potential cation channel subfamily M member 7 (Mus musculus) (UniProt Q923J1); experiment: Inhibition of Tet-induced Flag-tagged mouse TRPM7 expressed in HEK293 cells assessed as inhibition of channel-mediated cell death in presence of Mg2+ incubated for 24 to 48 hrs by propidium iodide uptake assay; assay type: cell-based; set-up: concentration or dose not given beside the values
# [6] = target: Transient receptor potential cation channel subfamily M member 7 (Mus musculus) (UniProt Q923J1); experiment: Inhibition of Tet-induced Flag-tagged mouse TRPM7 expressed in HEK293 cells assessed as reduction in channel currents at 0.3 to 30 uM by whole cell patch clamp assay; assay type: cell-based
# [7] = target: Transient receptor potential cation channel subfamily M member 7 (Rattus norvegicus) (UniProt Q925B3); experiment: Inhibition of TRPM7 in rat H9C2 cells assessed as reduction in channel currents at 0.3 to 30 uM by whole cell patch clamp assay; assay type: cell-based
# [8] = species on record: Mus musculus; experiment: Inhibition of calcium channel in mouse cortical neurons assessed as effect on Ca2+ currents; assay type: functional
# [9] = species on record: Mus musculus; experiment: Inhibition of potassium channel in mouse cortical neurons assessed as reduction in potassium currents
# [10] = target: Transient receptor potential cation channel subfamily M member 7 (Mus musculus) (UniProt Q923J1); experiment: Inhibition of TRPM7 in mouse primary neuronal cells exposed to oxygen glucose deprivation condition for 1 to 3 hrs assessed as reduction in TRPM7-mediated anoxic cell death dosed before oxygen glucose deprivation condition by propidium iodide uptake assay; details: Primary neuron
# [11] = target: Transient receptor potential cation channel subfamily M member 7 (Mus musculus) (UniProt Q923J1); experiment: Inhibition of TRPM7 in mouse primary neuronal cells exposed to oxygen glucose deprivation condition for 1 to 3 hrs assessed as reduction in TRPM7-mediated anoxic cell death dosed after oxygen glucose deprivation condition by propidium iodide uptake assay; details: Primary neuron
# [12] = target: Transient receptor potential cation channel subfamily M member 7 (Rattus norvegicus) (UniProt Q925B3); experiment: Inhibition of TRPM7 in rat H9C2 cells exposed to oxygen glucose deprivation condition for 1 to 6 hrs assessed as reduction in TRPM7-mediated anoxic cell death in presence of 1 uM nifedipine by propidium iodide uptake assay; assay type: cell-based
# [13] = test system: Mus musculus; experiment: Toxicity in mouse up to 150 uM, iv; assay type: organism-based; details: in vivo
# [14] = target: Transient receptor potential cation channel subfamily M member 7 (Rattus norvegicus) (UniProt Q925B3); experiment: Inhibition of TRPM7 in cultured rat retinal ganglion cells exposed to oxygen glucose deprivation condition for 3 hrs assessed as protection against TRPM7-mediated cell death at by propidium iodide uptake assay; set-up: scale not given: the % may be the effect or the level left
# [15] = target: Transient receptor potential cation channel subfamily M member 7 (Rattus norvegicus) (UniProt Q925B3); experiment: Inhibition of TRPM7 in rat retinal explants exposed to oxygen glucose deprivation condition for 1 hr assessed as protection against TRPM7-mediated cell death at by propidium iodide uptake assay
# [16] = test system: Y79; experiment: Inhibition of cell proliferation of human Y79 cells at 10 uM incubated for 48 to 96 hrs; assay type: functional
# [17] = test system: MCF7; experiment: Inhibition of cell proliferation of human MCF7 cells at 10 uM incubated for 48 to 96 hrs; assay type: functional
# [18] = test system: MDA-MB-231; experiment: Inhibition of cell proliferation of human MDA-MB-231 cells at 10 uM incubated for 48 to 96 hrs; assay type: functional
# [19] = Inhibition of cell proliferation of mouse B16-F1 cells at 10 uM incubated for 48 to 96 hrs; assay type: functional
# [20] = test system: SW13; experiment: Inhibition of cell proliferation of human SW13 cells at 10 uM incubated for 48 to 96 hrs; assay type: functional
# [21] = test system: HeLa; experiment: Inhibition of cell proliferation of human HeLa cells at 10 uM incubated for 48 to 96 hrs; assay type: functional
# [22] = Inhibition of cell proliferation of human WERI cells at 10 uM incubated for 48 to 96 hrs; assay type: functional
# [23] = Inhibition of cell proliferation of mouse B16F10 cells at 10 uM incubated for 48 to 96 hrs; assay type: functional; details: B16-F10
# [24] = target: Transient receptor potential cation channel subfamily M member 7 (Rattus norvegicus) (UniProt Q925B3); experiment: Inhibition of TRPM7 in Sprague-Dawley rat retinal explants dissociated and subjected to 1 hr oxygen-glucose deprivation assessed as reduction in retinal cell death at 1 and 5 uM
# [25] = target: Transient receptor potential cation channel subfamily M member 7 (Rattus norvegicus) (UniProt Q925B3); experiment: Inhibition of TRPM7 in rat H9C2 cells exposed to 6 hrs oxygen glucose deprivation condition followed by 2 hrs recovery assessed as reduction in TRPM7-mediated anoxic cell death at 0.05 to 5 uM by propidium iodide uptake assay; assay type: cell-based
# [26] = target: Transient receptor potential cation channel subfamily M member 7 (Mus musculus) (UniProt Q923J1); experiment: Inhibition of TRPM7 in mouse mouse primary cortical neurons exposed to 2 hrs oxygen glucose deprivation condition assessed as reduction in TRPM7-mediated anoxic cell death measured after 20 hrs by propidium iodide uptake assay; assay type: cell-based; details: Cerebral cortex neuron
# [27] = target: Transient receptor potential cation channel subfamily M member 7 (Mus musculus) (UniProt Q923J1); experiment: Inhibition of TRPM7 in mouse mouse primary cortical neurons exposed to 1 hrs oxygen glucose deprivation condition assessed as reduction in TRPM7-mediated anoxic cell death at 1.25 to 10 uM measured after 20 hrs by propidium iodide uptake assay; assay type: cell-based; details: Cerebral cortex neuron
# [28] = target: Transient receptor potential cation channel subfamily M member 7 (Mus musculus) (UniProt Q923J1); experiment: Inhibition of TRPM7 in mouse AML12 cells assessed as protection against oxygen glucose deprivation-induced cell death at 0.5 to 5 uM; assay type: cell-based
# [29] = target: Transient receptor potential cation channel subfamily M member 7 (Rattus norvegicus) (UniProt Q925B3); experiment: Inhibition of TRPM7 in rat H9c2 cells assessed as protection against oxygen glucose deprivation-induced cell death at 0.05 to 5 uM; assay type: cell-based
# [30] = target: Transient receptor potential cation channel subfamily M member 7 (Rattus norvegicus) (UniProt Q925B3); experiment: Inhibition of TRPM7 in rat H9c2 cells assessed as protection against oxygen glucose deprivation-induced cell death at 0.05 to 5 uM in presence of 1 uM nifedipine; assay type: cell-based
# [31] = target: Transient receptor potential cation channel subfamily M member 7 (Rattus norvegicus) (UniProt Q925B3); experiment: Inhibition of TRPM7 in rat H9c2 cells assessed as protection against oxygen glucose deprivation-induced cell death at 0.05 to 5 uM pre-treated for 24 hrs before OGD; assay type: cell-based
# [32] = target: Transient receptor potential cation channel subfamily M member 7 (Rattus norvegicus) (UniProt Q925B3); experiment: Inhibition of TRPM7 in rat H9c2 cells assessed as protection against oxygen glucose deprivation-induced cell death at 0.05 to 5 uM pre-treated for 24 hrs before OGD in presence of 1 uM nifedipine; assay type: cell-based
# [33] = test system: HEK293; experiment: Effect on Tet-induced Flag-tagged mouse TRPM7 expression in HEK293 cells; assay type: functional, cell-based; details: Homo sapiens
# [34] = test system: SW13; experiment: Inhibition of cell proliferation of human SW13 cells at 1.25 to 10 uM incubated for 72 hrs by SRB assay; assay type: functional, cell-based
# [35] = test system: MDA-MB-231; experiment: Inhibition of cell proliferation of human MDA-MB-231 cells at 1.25 to 10 uM incubated for 72 hrs by SRB assay; assay type: functional, cell-based
# [36] = test system: B16-F1; experiment: Inhibition of cell proliferation of mouse B16-F1 cells at 1.25 to 10 uM incubated for 72 hrs by SRB assay; assay type: functional, cell-based
# [37] = test system: B16-F10; experiment: Inhibition of cell proliferation of mouse B16F10 cells at 1.25 to 10 uM incubated for 72 hrs by SRB assay; assay type: functional, cell-based
# [38] = test system: U2OS; experiment: Inhibition of cell proliferation of human U2OS cells at 10 uM incubated for 48 to 96 hrs; assay type: functional
# [39] = Inhibition of cell proliferation of human DMS53 cells at 10 uM incubated for 48 to 96 hrs; assay type: functional; details: DMS-53
# [40] = test system: H9c2; experiment: Toxicity against rat H9c2 cells at 10 uM; assay type: cell-based; details: h9c2, 10 µM
# [41] = test system: H9c2; experiment: Toxicity against rat H9c2 cells at 5 uM; assay type: cell-based; details: h9c2, 5 µM
# [42] = test system: HeLa; experiment: Inhibition of cell proliferation of human HeLa cells at 1.25 to 10 uM incubated for 48 hrs by BrdU incorporation assay; assay type: functional, cell-based
# [43] = test system: SW13; experiment: Inhibition of cell proliferation of human SW13 cells at 1.25 to 10 uM incubated for 48 hrs by BrdU incorporation assay; assay type: functional, cell-based
# Sequence of Transient receptor potential cation channel subfamily M member 7 (Rattus norvegicus) (Q925B3 whole entry): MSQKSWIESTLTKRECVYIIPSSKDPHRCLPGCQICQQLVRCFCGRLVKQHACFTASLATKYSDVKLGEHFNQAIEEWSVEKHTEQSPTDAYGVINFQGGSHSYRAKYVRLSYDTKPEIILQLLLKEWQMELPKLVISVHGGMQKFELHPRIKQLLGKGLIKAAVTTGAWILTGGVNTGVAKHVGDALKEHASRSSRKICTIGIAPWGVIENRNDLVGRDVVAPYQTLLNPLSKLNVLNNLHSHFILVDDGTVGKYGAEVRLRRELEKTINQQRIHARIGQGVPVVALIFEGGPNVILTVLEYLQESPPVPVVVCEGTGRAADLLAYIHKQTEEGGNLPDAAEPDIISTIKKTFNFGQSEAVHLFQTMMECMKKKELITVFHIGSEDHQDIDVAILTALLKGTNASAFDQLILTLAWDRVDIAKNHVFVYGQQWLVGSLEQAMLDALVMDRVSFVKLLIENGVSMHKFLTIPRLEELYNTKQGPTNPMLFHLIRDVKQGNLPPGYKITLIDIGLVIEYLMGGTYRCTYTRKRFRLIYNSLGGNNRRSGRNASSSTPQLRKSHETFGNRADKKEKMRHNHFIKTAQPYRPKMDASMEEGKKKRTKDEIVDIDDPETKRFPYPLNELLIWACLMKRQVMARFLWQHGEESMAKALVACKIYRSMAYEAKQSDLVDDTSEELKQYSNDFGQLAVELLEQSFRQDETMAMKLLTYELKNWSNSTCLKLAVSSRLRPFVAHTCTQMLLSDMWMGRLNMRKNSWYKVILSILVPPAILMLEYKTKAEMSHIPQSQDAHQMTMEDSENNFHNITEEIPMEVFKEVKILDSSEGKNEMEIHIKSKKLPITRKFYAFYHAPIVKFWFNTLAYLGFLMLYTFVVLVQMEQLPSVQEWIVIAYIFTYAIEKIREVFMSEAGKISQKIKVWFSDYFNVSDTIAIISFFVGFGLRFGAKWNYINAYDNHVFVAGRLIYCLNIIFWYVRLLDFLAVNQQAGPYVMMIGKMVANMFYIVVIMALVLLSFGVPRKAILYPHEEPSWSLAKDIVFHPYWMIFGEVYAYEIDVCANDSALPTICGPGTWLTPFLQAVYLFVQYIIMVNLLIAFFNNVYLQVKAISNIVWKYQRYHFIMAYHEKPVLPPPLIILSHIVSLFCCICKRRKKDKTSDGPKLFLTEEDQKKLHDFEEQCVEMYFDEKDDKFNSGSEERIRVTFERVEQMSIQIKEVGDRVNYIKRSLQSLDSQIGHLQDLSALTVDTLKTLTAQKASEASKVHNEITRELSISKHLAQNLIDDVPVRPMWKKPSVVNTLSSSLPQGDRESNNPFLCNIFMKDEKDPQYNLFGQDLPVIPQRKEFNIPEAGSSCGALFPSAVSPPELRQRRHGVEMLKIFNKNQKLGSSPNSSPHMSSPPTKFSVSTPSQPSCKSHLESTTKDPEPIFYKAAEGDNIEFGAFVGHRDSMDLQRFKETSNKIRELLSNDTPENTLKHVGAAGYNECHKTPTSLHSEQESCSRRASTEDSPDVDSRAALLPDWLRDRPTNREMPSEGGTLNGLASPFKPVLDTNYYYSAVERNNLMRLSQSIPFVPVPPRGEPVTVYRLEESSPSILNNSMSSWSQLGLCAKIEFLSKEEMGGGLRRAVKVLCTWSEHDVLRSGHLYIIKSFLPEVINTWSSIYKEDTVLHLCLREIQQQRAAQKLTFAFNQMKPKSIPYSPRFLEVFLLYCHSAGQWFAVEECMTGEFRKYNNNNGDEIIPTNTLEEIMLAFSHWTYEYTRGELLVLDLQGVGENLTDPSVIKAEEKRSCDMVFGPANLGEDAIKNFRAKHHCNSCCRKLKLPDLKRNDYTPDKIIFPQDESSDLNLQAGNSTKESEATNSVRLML
# Sequence of Transient receptor potential cation channel subfamily M member 7 (Mus musculus) (Q923J1 whole entry): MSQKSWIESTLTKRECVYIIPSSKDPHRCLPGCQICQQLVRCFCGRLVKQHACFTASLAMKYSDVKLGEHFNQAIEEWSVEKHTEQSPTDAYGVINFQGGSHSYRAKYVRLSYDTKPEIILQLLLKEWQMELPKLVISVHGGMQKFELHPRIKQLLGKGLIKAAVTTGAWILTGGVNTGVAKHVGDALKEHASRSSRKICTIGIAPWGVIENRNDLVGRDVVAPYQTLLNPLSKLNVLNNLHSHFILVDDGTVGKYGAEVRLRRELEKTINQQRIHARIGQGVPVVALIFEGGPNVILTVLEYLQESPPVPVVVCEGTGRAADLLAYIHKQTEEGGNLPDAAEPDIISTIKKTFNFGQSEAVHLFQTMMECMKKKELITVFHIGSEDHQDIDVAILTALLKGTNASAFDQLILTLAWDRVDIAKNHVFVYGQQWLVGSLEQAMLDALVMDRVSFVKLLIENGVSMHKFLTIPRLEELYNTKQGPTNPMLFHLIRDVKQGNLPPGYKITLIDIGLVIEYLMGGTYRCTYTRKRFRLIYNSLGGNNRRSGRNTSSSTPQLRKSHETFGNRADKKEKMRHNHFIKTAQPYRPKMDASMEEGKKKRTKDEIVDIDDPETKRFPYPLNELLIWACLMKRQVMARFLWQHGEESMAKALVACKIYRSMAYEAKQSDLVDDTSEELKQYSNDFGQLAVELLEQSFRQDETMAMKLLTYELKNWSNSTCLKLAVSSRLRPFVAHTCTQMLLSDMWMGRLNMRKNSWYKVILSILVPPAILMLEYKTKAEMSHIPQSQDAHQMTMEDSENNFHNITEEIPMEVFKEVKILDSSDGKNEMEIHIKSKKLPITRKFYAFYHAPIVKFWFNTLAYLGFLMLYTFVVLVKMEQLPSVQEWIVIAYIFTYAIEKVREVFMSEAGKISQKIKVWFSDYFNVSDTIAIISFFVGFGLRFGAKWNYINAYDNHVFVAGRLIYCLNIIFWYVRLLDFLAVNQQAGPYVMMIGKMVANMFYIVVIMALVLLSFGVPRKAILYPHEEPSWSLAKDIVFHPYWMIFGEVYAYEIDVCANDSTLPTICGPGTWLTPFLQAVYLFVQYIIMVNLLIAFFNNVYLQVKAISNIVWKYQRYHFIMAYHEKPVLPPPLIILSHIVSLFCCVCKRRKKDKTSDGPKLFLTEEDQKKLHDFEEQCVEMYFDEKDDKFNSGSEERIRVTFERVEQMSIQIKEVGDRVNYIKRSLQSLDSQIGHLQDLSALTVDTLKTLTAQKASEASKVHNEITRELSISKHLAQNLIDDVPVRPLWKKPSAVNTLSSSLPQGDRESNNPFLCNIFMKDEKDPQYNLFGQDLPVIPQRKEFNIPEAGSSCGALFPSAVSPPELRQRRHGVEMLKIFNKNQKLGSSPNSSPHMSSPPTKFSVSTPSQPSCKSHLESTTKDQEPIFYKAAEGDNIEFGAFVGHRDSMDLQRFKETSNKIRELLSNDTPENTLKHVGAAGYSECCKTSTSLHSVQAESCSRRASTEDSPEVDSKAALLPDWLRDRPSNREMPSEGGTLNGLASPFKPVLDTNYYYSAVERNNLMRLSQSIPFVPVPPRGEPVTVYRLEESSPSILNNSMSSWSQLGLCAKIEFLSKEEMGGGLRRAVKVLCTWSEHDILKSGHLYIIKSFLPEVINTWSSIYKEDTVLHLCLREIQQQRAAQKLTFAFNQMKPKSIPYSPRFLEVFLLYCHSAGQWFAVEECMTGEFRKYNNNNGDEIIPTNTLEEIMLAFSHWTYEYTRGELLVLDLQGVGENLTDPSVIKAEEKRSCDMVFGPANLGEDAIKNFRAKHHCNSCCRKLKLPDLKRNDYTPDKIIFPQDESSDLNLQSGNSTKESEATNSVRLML
compound,measurement,setting,value
Cc1ccc2c(c1)CCCN2C(=O)c1sc2ccccc2c1Cl,inhibition,[1],Active
same,Activity,[2],Non-toxic
same,inhibition,[3],Active
same,inhibition,[4],inactive
same,inhibition,[5]; concentration not given here,80%
same,inhibition,[6],Active
same,inhibition,[7],Active
same,inhibition,[8],inactive
same,inhibition,[9],Active
same,inhibition,[10],Active
same,inhibition,[11],Active
same,inhibition,[12],Active
same,Activity,[13],Non-toxic
same,Activity,[14],66%
same,inhibition,[15],Active
same,inhibition at 10 µM,[16],> 20%
same,inhibition at 10 µM,[17],> 20%
same,inhibition at 10 µM,[18],> 20%
same,inhibition at 10 µM,[19],> 20%
same,inhibition at 10 µM,[20],> 20%
same,inhibition at 10 µM,[21],> 20%
same,inhibition at 10 µM,[22],> 20%
same,inhibition at 10 µM,[23],> 20%
same,inhibition,[24],Active
same,inhibition,[25],Active
same,inhibition,[26],Active
same,inhibition,[27],Active
same,inhibition,[28],Active
same,inhibition,[29],Active
same,inhibition,[30],Active
same,inhibition,[31],Active
same,inhibition,[32],Active
COc1ccccc1N1CCN(CC(O)COc2cccc3ccccc23)CC1 (stereo unspecified),inhibition,[5],Dose-dependent effect
same,Activity,[33],inactive
O=C(Nc1ccc(F)cc1)C(Sc1ccc(Cl)cc1)c1ccccc1 (stereo unspecified),inhibition,[34],Active
same,inhibition,[35],Active
same,inhibition,[36],Active
same,inhibition,[37],Active
same,Activity,[2],Non-toxic
same,inhibition,[3],Active
same,inhibition,[4],inactive
same,inhibition,[5]; concentration not given here,80%
same,inhibition,[6],Active
same,inhibition,[7],Active
same,inhibition,[8],inactive
same,inhibition,[9],Active
same,inhibition,[10],Active
same,inhibition,[11],Active
same,inhibition,[12],Active
same,Activity,[14],66%
same,inhibition,[15],Active
same,inhibition at 10 µM,[16],> 20%
same,inhibition at 10 µM,[17],> 20%
same,inhibition at 10 µM,[18],> 20%
same,inhibition at 10 µM,[19],> 20%
same,inhibition at 10 µM,[20],> 20%
same,inhibition at 10 µM,[21],> 20%
same,inhibition at 10 µM,[38],> 20%
same,inhibition at 10 µM,[39],> 20%
same,inhibition at 10 µM,[23],> 20%
same,Activity,[40],Toxic
same,Activity,[41],Non-toxic
same,inhibition,[24],Active
same,inhibition,[26],Active
COc1ccc(OC)c(SCc2nnc(-c3ccc([N+](=O)[O-])c(C)c3)o2)c1,inhibition,[5]; concentration not given here,80%
same,inhibition,[6],Active
same,inhibition,[7],Active
same,inhibition,[10],Active
same,inhibition,[11],Active
same,inhibition at 10 µM,[22],> 20%
same,inhibition,[26],Active
Ic1ccccc1CN[C@@H]1C2CCN(CC2)[C@@H]1C(c1ccccc1)c1ccccc1 (relative stereo),inhibition,[5],Dose-dependent effect
same,Activity,[33],inactive
COc1cc2c(cc1OC)-c1c/c(=N\c3c(C)cc(C)cc3C)n(C)c(=O)n1CC2,inhibition,[5],Dose-dependent effect
same,Activity,[33],inactive
Cc1ccc(-n2c(-c3ccc(Cl)c(C)c3)csc2=N)c(C)c1.Cl,inhibition,[42],Active
same,inhibition,[43],Active
same,inhibition,[34],Active
same,inhibition,[35],Active
same,inhibition,[36],Active
same,inhibition,[37],Active
same,Activity,[2],Non-toxic
same,inhibition,[5]; concentration not given here,80%
same,inhibition,[6],Active
same,inhibition,[7],Active
same,inhibition,[10],Active
same,inhibition,[11],Active
same,inhibition at 10 µM,[22],> 20%
same,Activity,[40],Toxic
same,Activity,[41],Non-toxic
same,inhibition,[26],Active
